Results as given in patent US10035794B2, “Heterocyclic derivatives and their use in the treatment of neurological disorders” (NOVARTIS AG, priority 2011, dated 2018).
Counter-ions that a name gives are not always drawn.

Experiment: Test 4: Inhibition of Cellular Release of Amyloid Peptide 1-40
Type: cell-based, Chinese hamster
Conditions: Cricetulus griseus, CHO, 24 h; read-out: Amyloid-β1-40 release IC50
Experimental: Chinese hamster ovary cells are transfected with the human gene for amyloid precursor protein. The cells are plated at a density of 8000 cells/well into 96-well microtiter plates and cultivated for 24 hours in DMEM cell culture medium containing 10% FCS. The test compound is added to the cells at various concentrations, and the cells are cultivated for 24 hours in the presence of the test compound.

| Compound | IC50 |
| --- | --- |
| Cc1cc(C#N)cnc1C(=O)Nc1ccc(F)c([C@@]2(C)CO[C@@](C)(C(F)(F)F)C(N)=N2)n1 [Example 12, 5-Cyano-3-methyl-pyridine-2-carboxylic acid [6-((3S,6R)-5-amino-3,6-dimethyl-6-trifluoromethyl-3,6-dihydro-2H-[1,4]oxazin-3-yl)-5-fluoro-pyridin-2-yl]-amide] | 0.28 µM |
| C[C@@]1(c2nc(NC(=O)c3ncc(OCCCF)nc3N)ccc2F)CO[C@@](C)(C(F)(F)F)C(N)=N1 [Example 42, 3-Amino-5-(3-fluoro-propoxy)-pyrazine-2-carboxylic acid [6-((3R,6R)-5-amino-3,6-dimethyl-6-trifluoromethyl-3,6-dihydro-2H-[1,4]oxazin-3-yl)-5-fluoro-pyridin-2-yl]amide] | 0.072 µM |
| Cc1cc(OCF)cnc1C(=O)Nc1ccc(F)c([C@]2(C)CO[C@@](C)(C(F)(F)F)C(N)=N2)n1 [Example 32, 5-Fluoromethoxy-3-methyl-pyridine-2-carboxylic acid [6-((3R,6R)-5-amino-3,6-dimethyl-6-trifluoromethyl-3,6-dihydro-2H-[1,4]oxazin-3-yl)-5-fluoro-pyridin-2-yl]amide] | 0.026 µM |
| Cc1cc(OC(F)F)cnc1C(=O)Nc1ccc(F)c([C@]2(C)CO[C@@](C)(C(F)(F)F)C(N)=N2)n1 [Example 29, 5-Difluoromethoxy-3-methyl-pyridine-2-carboxylic acid [6-((3R,6R)-5-amino-3,6-dimethyl-6-trifluoromethyl-3,6-dihydro-2H-[1,4]oxazin-3-yl)-5-fluoro-pyridin-2-yl]amide] | 0.024 µM |
| N#Cc1cnc(C(=O)Nc2ccc(F)c([C@]3(C(F)F)COCC(N)=N3)n2)c(Cl)c1 [Example 40, 3-Chloro-5-cyano-pyridine-2-carboxylic acid [6-((R)-5-amino-3-difluoromethyl-3,6-dihydro-2H-[1,4]oxazin-3-yl)-5-fluoro-pyridin-2-yl]-amide] | 0.012 µM |
| C[C@@]1(c2nc(NC(=O)c3nc4ccn(CC(F)F)c4nc3N)ccc2F)CO[C@@](C)(C(F)(F)F)C(N)=N1 [Example 45, 3-Amino-5-(2,2-difluoro-ethyl)-5H-pyrrolo[2,3-b]pyrazine-2-carboxylic acid [6-((3R,6R)-5-amino-3,6-dimethyl-6-trifluoromethyl-3,6-dihydro-2H-[1,4]oxazin-3-yl)-5-fluoro-pyridin-2-yl]amide] | 3.6 µM |
| C[C@@]1(c2cccc(NC(=O)c3ncc(Br)cc3Cl)n2)CO[C@@](C)(C(F)(F)F)C(N)=N1 [Example 22, 5-Bromo-3-chloro-pyridine-2-carboxylic acid [6-((3R,6R)-5-amino-3,6-dimethyl-6-trifluoromethyl-3,6-dihydro-2H-[1,4]oxazin-3-yl)-pyridin-2-yl]-amide] | 0.029 µM |
| [2H]c1nc(C(=O)Nc2cccc([C@]3(C)CO[C@@](C)(C(F)(F)F)C(N)=N3)n2)c(C([2H])([2H])[2H])c([2H])c1Cl [Example 21, 5-Chloro-4,6-dideuterio-3-trideuteriomethyl-pyridine-2-carboxylic acid [6-((3R,6R)-5-amino-3,6-dimethyl-6-trifluoromethyl-3,6-dihydro-2H-[1,4]oxazin-3-yl)-pyridin-2-yl]-amide] | 0.11 µM |
| Cc1cc(C#N)cnc1C(=O)Nc1ccc(F)c([C@]2(C)CO[C@@](C)(C(F)(F)F)C(N)=N2)n1 [Example 11, 5-Cyano-3-methyl-pyridine-2-carboxylic acid [6-((3R,6R)-5-amino-3,6-dimethyl-6-trifluoromethyl-3,6-dihydro-2H-[1,4]oxazin-3-yl)-5-fluoro-pyridin-2-yl]-amide] | 0.002 µM |
| Cc1cc(C#N)cnc1C(=O)Nc1cccc([C@]2(C)CO[C@@](C)(C(F)(F)F)C(N)=N2)n1 [Example 8, 5-Cyano-3-methyl-pyridine-2-carboxylic acid [6-((3R,6R)-5-amino-3,6-dimethyl-6-trifluoro-methyl-3,6-dihydro-2H-[1,4]oxazin-3-yl)-pyridin-2-yl]-amide] | 0.006 µM |
| Cc1cc(C#N)cnc1C(=O)Nc1cc([C@@]2(C)CO[C@@](C)(C(F)(F)F)C(N)=N2)c(F)cn1 [Example 17, 5-Cyano-3-methyl-pyridine-2-carboxylic acid [4-((3S,6R)-5-amino-3,6-dimethyl-6-trifluoromethyl-3,6-dihydro-2H-[1,4]oxazin-3-yl)-5-fluoro-pyridin-2-yl]-amide] | 4.8 µM |
| C[C@@]1(c2cc(NC(=O)c3ncc(OC(F)F)cc3Cl)ncc2F)CO[C@@](C)(C(F)(F)F)C(N)=N1 [Example 36, 3-Chloro-5-difluoromethoxy-pyridine-2-carboxylic acid [4-((3R,6R)-5-amino-3,6-dimethyl-6-trifluoromethyl-3,6-dihydro-2H-[1,4]oxazin-3-yl)-5-fluoro-pyridin-2-yl]-amide] | 0.41 µM |
| C[C@@]1(c2cc(NC(=O)c3ncc(C#N)cc3Cl)ncc2F)CO[C@@](C)(C(F)(F)F)C(N)=N1 [Example 35, 3-Chloro-5-cyano-pyridine-2-carboxylic acid [4-((3R,6R)-5-amino-3,6-dimethyl-6-trifluoromethyl-3,6-dihydro-2H-[1,4]oxazin-3-yl)-5-fluoro-pyridin-2-yl]-amide] | 0.14 µM |
| Cc1cc(C#N)cnc1C(=O)Nc1cc([C@]2(C)COC(CF)(CF)C(N)=N2)c(F)cn1 [Example 37, 5-Cyano-3-methyl-pyridine-2-carboxylic acid [4-((R)-5-amino-6,6-bis-fluoromethyl-3-methyl-3,6-dihydro-2H-[1,4]oxazin-3-yl)-5-fluoro-pyridin-2-yl]-amide] | 0.083 µM |
| NC1=NC(CF)(c2cc(NC(=O)c3ccc(Br)cn3)cnc2Cl)COC1 (centres unmarked) [Example 18, 5-Bromo-pyridine-2-carboxylic acid [5-(5-amino-3-fluoromethyl-3,6-dihydro-2H-[1,4]oxazin-3-yl)-6-chloro-pyridin-3-yl]-amide hydrochloride] | 0.015 µM |
| C[C@@]1(c2cccc(NC(=O)c3ccc(C#N)cn3)n2)CO[C@@](C)(C(F)(F)F)C(N)=N1 [Example 10, 5-Cyano-pyridine-2-carboxylic acid [6-((3R,6R)-5-amino-3,6-dimethyl-6-trifluoromethyl-3,6-dihydro-2H-[1,4]oxazin-3-yl)-pyridin-2-yl]-amide] | 0.017 µM |
| C[C@@]1(c2cccc(NC(=O)c3ncc(C#N)cc3Cl)n2)CO[C@@](C)(C(F)(F)F)C(N)=N1 [Example 20, 3-Chloro-5-cyano-pyridine-2-carboxylic acid [6-((3R,6R)-5-amino-3,6-dimethyl-6-trifluoromethyl-3,6-dihydro-2H-[1,4]oxazin-3-yl)-pyridin-2-yl]-amide] | 0.005 µM |
| Cc1cnc(C(=O)Nc2ccc(F)c([C@]3(C)CO[C@@](C)(C(F)(F)F)C(N)=N3)n2)c(C)n1 [Example 41, 3,5-Dimethyl-pyrazine-2-carboxylic acid [6-((3R,6R)-5-amino-3,6-dimethyl-6-trifluoromethyl-3,6-dihydro-2H-[1,4]oxazin-3-yl)-5-fluoro-pyridin-2-yl]amide] | 0.161 µM |
| COCCn1ccc2nc(C(=O)Nc3ccc(F)c([C@]4(C)CO[C@@](C)(C(F)(F)F)C(N)=N4)n3)c(N)nc21 [Example 43, 3-Amino-5-(2-methoxy-ethyl)-5H-pyrrolo[2,3-b]pyrazine-2-carboxylic acid [6-((3R,6R)-5-amino-3,6-dimethyl-6-trifluoromethyl-3,6-dihydro-2H-[1,4]oxazin-3-yl)-5-fluoro-pyridin-2-yl]amide] | 0.37 µM |
| C[C@@]1(c2cccc(NC(=O)c3ncc(C#N)cc3N)n2)CO[C@@](C)(C(F)(F)F)C(N)=N1 [Example 19, 3-Amino-5-cyano-pyridine-2-carboxylic acid [6-((3R,6R)-5-amino-3,6-dimethyl-6-trifluoromethyl-3,6-dihydro-2H-[1,4]oxazin-3-yl)-pyridin-2-yl]-amide] | 0.048 µM |
| CC1(c2cccc(NC(=O)c3ccc(Br)cn3)n2)COCC(N)=N1 (racemic) [Example 2, 5-Bromo-pyridine-2-carboxylic acid [6-(5-amino-3-methyl-3,6-dihydro-2H-[1,4]-oxazin-3-yl)-pyridin-2-yl]-amide] | 0.058 µM |
| Cc1cc(C#N)cnc1C(=O)Nc1ccc(F)c([C@]2(C(F)F)COCC(N)=N2)n1 [Example 38, 5-Cyano-3-methyl-pyridine-2-carboxylic acid [6-((R)-5-amino-3-difluoromethyl-3,6-dihydro-2H-[1,4]oxazin-3-yl)-5-fluoro-pyridin-2-yl]-amide] | 0.005 µM |
| Cc1cnc(C(=O)Nc2ccc(F)c([C@]3(C)CO[C@@](C)(C(F)(F)F)C(N)=N3)n2)cn1 [Example 33, 5-Methyl-pyrazine-2-carboxylic acid [6-((3R,6R)-5-amino-3,6-dimethyl-6-trifluoromethyl-3,6-dihydro-2H-[1,4]oxazin-3-yl)-5-fluoro-pyridin-2-yl]amide] | 0.13 µM |
| Cc1cc(C#N)cnc1C(=O)Nc1ccc(F)c([C@@]2(C(F)F)COCC(N)=N2)n1 [Example 39, 5-Cyano-3-methyl-pyridine-2-carboxylic acid [6-((S)-5-amino-3-difluoromethyl-3,6-dihydro-2H-[1,4]oxazin-3-yl)-5-fluoro-pyridin-2-yl]-amide] | 0.29 µM |
| C[C@@]1(c2cccc(NC(=O)c3ccc(Br)cn3)n2)COCC(N)=N1 [Example 1, 5-Bromo-pyridine-2-carboxylic acid [6-((R)-5-amino-3-methyl-3,6-dihydro-2H-[1,4]-oxazin-3-yl)-pyridin-2-yl]-amide] | 0.041 µM |
| [2H]c1nc(C(=O)Nc2cccc(C3(CF)COCC(N)=N3)n2)c(C([2H])([2H])[2H])c([2H])c1Cl (centres unmarked) [Example 6, 5-{6-[(4,6-Dideutero-5-chloro-3-trideuteromethyl-pyridine-2-carbonyl)-amino]-pyridin-2-yl}-5-fluoromethyl-5,6-dihydro-2H-[1,4]oxazin-3-yl-ammonium trifluoro acetate] | 0.063 µM |
